Reference: article PMC4690855 (Viruses, 2015)
Several values for one entry are separate records, joined by “and”; a condition that tells them apart may be missing. Equal values may be shown once. Entries after “also recorded” stand apart in the source; their conditions may differ. Where a name gives a salt, the structure may show the parent alone. Read-outs that look alike come from different tables or passages of the source.

Key:
[1] = target: T1, double mutant (I54M, L90M) HIV-2 protease (Human immunodeficiency virus type 2 subtype A, UniProt P04584, I567M/L603M); assay: In vitro enzymatic (HPLC) inhibition assay, double mutant protease; type: biochemical
T1 sequence (P04584 514-612 I567M/L603M): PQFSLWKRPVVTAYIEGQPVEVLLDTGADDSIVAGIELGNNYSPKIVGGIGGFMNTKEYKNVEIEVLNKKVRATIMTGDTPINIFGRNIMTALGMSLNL

[2] = tested on: HIV-2 vectors harboring the double mutation (I54M, L90M); assay: Cell culture inhibition profiling, HIV-2 vector harboring the double mutation; type: cell-based; settings: for IC50: transfected 293T cells, 3 days, RT activity in medium, triplicate, mean ± SD, read-out: IC50 Double Mutant (I54M, L90M) (cell culture); for Fold Increase (IC50, cell culture): IC50 double mutant versus wild-type; for Effect of I54M-L90M double mutation on IC50 in cell culture, in words: double mutant versus wild-type vector
wild-type HIV-2 protease = wild-type HIV-2 protease (Human immunodeficiency virus type 2 subtype A, UniProt P04584); assay: In vitro enzymatic (HPLC) inhibition assay, wild-type protease; type: biochemical
Chain of wild-type HIV-2 protease (P04584 514-612 limits assumed): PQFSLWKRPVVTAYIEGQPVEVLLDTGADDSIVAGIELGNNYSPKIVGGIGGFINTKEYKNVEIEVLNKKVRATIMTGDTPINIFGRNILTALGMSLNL

wild-type HIV-2 vectors = assay: Cell culture inhibition profiling, wild-type HIV-2 vector; type: cell-based; settings: transfected 293T cells, 3 days, RT activity in medium, triplicate, mean ± SD
[3] = tested on: double mutant (I54M, L90M) HIV-2 protease; assay: In vitro enzymatic (HPLC) inhibition assay, double mutant protease; type: biochemical; settings: for Fold Increase (Ki): Ki double mutant versus wild-type
[4] = Human immunodeficiency virus 2, HEK-293T, 72 h
[5] = HPLC, oligopeptide substrate, pH 5.6, 37 °C 1 h, triplicate, mean ± SD, read-out: IC50 Wild-Type
[6] = calculated from IC50 by Ki = (IC50 − E/2)/(S/Km + 1), mean ± SD, read-out: Ki Wild-Type

Compound | IC50 [1] [nM] | IC50 [2, 4] [nM] | Fold Increase (Ki) [3] | Fold Increase (IC50, cell culture) [2] [fold] | Effect of I54M-L90M double mutation on IC50 in cell culture, in words [2] | IC50 (wild-type HIV-2 protease; [5]) [nM] | Ki (wild-type HIV-2 protease; [6]) | further results
CC(C)CN(C[C@@H](O)[C@H](Cc1ccccc1)NC(=O)O[C@H]1CCOC1)S(=O)(=O)c1ccc(N)cc1 [Amprenavir] | 152 ± 9 | > 100000 | – | – | – | – | – | –
COC(=O)N[C@H](C(=O)N[C@@H](Cc1ccccc1)[C@@H](O)CN(Cc1ccc(-c2ccccn2)cc1)NC(=O)[C@@H](NC(=O)OC)C(C)(C)C)C(C)(C)C.O=S(=O)(O)O [Atazanavir sulfate, atazanavir sulfate] | – | – | more than 10 fold | 4.8 | significant IC50 increase | – | – | Ki (wild-type HIV-2 protease; wild-type protease, read-out: Ki Wild-Type (as printed in text in μM)): 0.09 ± 0.03 nM; IC50 (wild-type HIV-2 vectors): 5900 ± 500 nM; IC50 [2]: 28600 ± 350 nM
COC(=O)N[C@H](C(=O)N[C@@H](Cc1ccccc1)[C@@H](O)CN(Cc1ccc(-c2ccccn2)cc1)NC(=O)[C@@H](NC(=O)OC)C(C)(C)C)C(C)(C)C [Atazanavir] | 10.9 ± 0.2 | – | 16.6 fold | – | – | 3.34 ± 1 | 0.09 ± 0.03 nM | –
CC(C)CN(C[C@@H](O)[C@H](Cc1ccccc1)NC(=O)O[C@H]1CO[C@H]2OCC[C@H]21)S(=O)(=O)c1ccc(N)cc1 [Darunavir] | 8.14 ± 1.3 | 18700 ± 1600 | 22.2 fold | 44.5 | – | – | – | IC50 (wild-type HIV-2 protease): 1.76 ± 0.1 nM; Ki (wild-type HIV-2 protease; Ki Wild-Type, calculated from IC50 by Ki = (IC50 − E/2)/(S/Km + 1), mean ± SD): 0.05 ± 0.005 nM; Fold Increase (Ki) ([3]; listed as darunavir): > 20 fold; Fold Increase (IC50, cell culture) ([2]; listed as darunavir): > 40 fold
CC(C)(C)NC(=O)[C@@H]1CN(Cc2cccnc2)CCN1C[C@@H](O)C[C@@H](Cc1ccccc1)C(=O)N[C@H]1c2ccccc2C[C@H]1O [Indinavir sulfate, indinavir sulfate] | – | 16500 ± 2100 | more than 10 fold | 11.7 | – | – | 0.03 nM | Fold Increase (IC50, cell culture) ([2]; listed as indinavir sulfate): > 10 fold
CC(C)(C)NC(=O)[C@@H]1CN(Cc2cccnc2)CCN1C[C@@H](O)C[C@@H](Cc1ccccc1)C(=O)N[C@H]1c2ccccc2C[C@H]1O [Indinavir] | 2.6 ± 1.4 | – | 12 fold | – | – | 1.3 ± 0.5 | – | –
Cc1cccc(C)c1OCC(=O)N[C@@H](Cc1ccccc1)[C@@H](O)C[C@H](Cc1ccccc1)NC(=O)[C@H](C(C)C)N1CCCNC1=O [Lopinavir] | 2.32 ± 0.1 | 3100 ± 1100 | 10.6 fold | 20.6 | – | 1.18 ± 0.1 | 0.03 ± 0.001 nM | Fold Increase (Ki) ([3]; listed as lopinavir): more than 10 fold; Fold Increase (IC50, cell culture) ([2]; listed as lopinavir): > 20 fold
Cc1c(O)cccc1C(=O)N[C@@H](CSc1ccccc1)[C@H](O)CN1C[C@H]2CCCC[C@H]2C[C@H]1C(=O)NC(C)(C)C [Nelfinavir] | 190 ± 14.5 | 5100 ± 1700 | 26 fold | 1.8 | significant IC50 increase | 38 ± 10 | 1 nM and 1.01 nM | Fold Increase (Ki) ([3]; listed as nelfinavir): > 20 fold
CC(C)c1nc(CN(C)C(=O)N[C@H](C(=O)N[C@@H](Cc2ccccc2)C[C@H](O)[C@H](Cc2ccccc2)NC(=O)OCc2cncs2)C(C)C)cs1 [Ritonavir] | – | 14500 ± 300 | – | – | – | – | – | –
CC(C)(C)NC(=O)[C@@H]1C[C@@H]2CCCC[C@@H]2CN1C[C@@H](O)[C@H](Cc1ccccc1)NC(=O)[C@H](CC(N)=O)NC(=O)c1ccc2ccccc2n1 [Saquinavir] | 14.1 ± 1.7 | 3500 ± 1200 | 21.4 fold | 2.7 | significant IC50 increase | 3.42 ± 0.1 | 0.09 ± 0.001 nM | Fold Increase (Ki) ([3]; listed as saquinavir): > 20 fold
CCC[C@@]1(CCc2ccccc2)CC(O)=C([C@H](CC)c2cccc(NS(=O)(=O)c3ccc(C(F)(F)F)cn3)c2)C(=O)O1 [Tipranavir] | 4.8 ± 1.6 | 5800 ± 1700 | 0.5 fold | 1.5 | did not have an effect | 50 ± 2 | 1.3 nM and 1.31 nM | Effect of I54M, L90M double mutation on inhibitor efficacy (enzymatic), in words ([3]; double mutant versus wild-type protease): remained indifferent to the mutations; also recorded: did not observe a significant increase in Ki
